Data as given in patent US20150105252A1, “SUBSTITUTED PYRAZOLES AS HERBICIDES” (E I DU PONT DE NEMOURS AND COMPANY, priority 2013, published 2015).

Tests used:
[1] = system: field poppy; assay: Test D preemergence; type: in vivo, Papaver rhoeas; settings: for Plant response rating, Field Poppy: Preemergence, scale 0 to 100
How it was run: (§1)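 Whole-plant herbicidal activity; pre- and postemergence sprays. Soil: silt loam (pre); peat/vermiculite medium (post, 1–4 leaf). Assessment: 14–21 days, visual, 0 = no effect, 100 = complete control.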

[2] = system: oilseed rape; assay: Test D postemergence; type: in vivo, Brassica napus; settings: scale 0 to 100
How it was run: as §1

[3] = system: oilseed rape; assay: Test D preemergence; type: in vivo, Brassica napus; settings: for Plant response rating, Oilseed Rape: Preemergence, scale 0 to 100
How it was run: as §1

[4] = system: galium; assay: Test D preemergence; type: in vivo, Galium aparine; settings: for Plant response rating, Galium: Preemergence, scale 0 to 100
How it was run: as §1

[5] = system: ryegrass, Italian; assay: Test D postemergence; type: in vivo, Lolium multiflorum; settings: scale 0 to 100
How it was run: as §1

[6] = system: buckwheat, wild; assay: Test D postemergence; type: in vivo, Polygonum convolvulus; settings: scale 0 to 100
How it was run: as §1

[7] = system: mustard, wild; assay: Test D postemergence; type: in vivo, Sinapis arvensis; settings: scale 0 to 100
How it was run: as §1

[8] = system: kochia; assay: Test D postemergence; type: in vivo, Kochia scoparia; settings: scale 0 to 100
How it was run: as §1

[9] = system: foxtail, green; assay: Test D preemergence; type: in vivo, Setaria viridis; settings: for Plant response rating, Foxtail, Green: Preemergence, scale 0 to 100
How it was run: as §1

[10] = system: blackgrass; assay: Test D postemergence; type: in vivo, Alopecurus myosuroides; settings: scale 0 to 100
How it was run: as §1

[11] = system: canarygrass; assay: Test D postemergence; type: in vivo, Phalaris minor; settings: scale 0 to 100
How it was run: as §1

[12] = system: wheat, winter; assay: Test D preemergence; type: in vivo, Triticum aestivum; settings: for Plant response rating, Wheat, Winter: Preemergence, scale 0 to 100
How it was run: as §1

[13] = system: wheat, spring; assay: Test D preemergence; type: in vivo, Triticum aestivum; settings: for Plant response rating, Wheat, Spring: Preemergence, scale 0 to 100
How it was run: as §1

[14] = system: bluegrass; assay: Test D postemergence; type: in vivo, Poa annua; settings: scale 0 to 100
How it was run: as §1

[15] = system: deadnettle; assay: Test D postemergence; type: in vivo, Lamium amplexicaule; settings: scale 0 to 100
How it was run: as §1

[16] = system: bluegrass; assay: Test D preemergence; type: in vivo, Poa annua; settings: for Plant response rating, Bluegrass: Preemergence, scale 0 to 100
How it was run: as §1

[17] = system: field violet; assay: Test D preemergence; type: in vivo, Viola arvensis; settings: for Plant response rating, Field Violet: Preemergence, scale 0 to 100
How it was run: as §1

[18] = system: chickweed; assay: Test D postemergence; type: in vivo, Stellaria media; settings: scale 0 to 100
How it was run: as §1

[19] = system: windgrass; assay: Test D preemergence; type: in vivo, Apera spica-venti; settings: for Plant response rating, Windgrass: Preemergence, scale 0 to 100
How it was run: as §1

[20] = system: radish, wild; assay: Test D postemergence; type: in vivo, Raphanus raphanistrum; settings: scale 0 to 100
How it was run: as §1

[21] = system: bromegrass, downy; assay: Test D preemergence; type: in vivo, Bromus tectorum; settings: for Plant response rating, Bromegrass, Downy: Preemergence, scale 0 to 100
How it was run: as §1

[22] = 16 g ai/ha, taken as preemergence

CCc1cc(C(=O)NC2CC2)nn1Cc1ccnc(C(F)(F)F)c1 [Compound 76]
Plant response rating (scale 0 to 100), Field Poppy [1, 22]: 95
Plant response rating, Field Poppy ([1]; 31 g ai/ha): 100
Plant response rating, Field Poppy ([1]; 62 g ai/ha): 100
Plant response rating, Field Poppy ([1]; 125 g ai/ha): 100
Plant response rating, Field Poppy ([1]; 250 g ai/ha): 100
Plant response rating, Oilseed Rape ([2]; Postemergence, 16 g ai/ha): 10
Oilseed Rape plant response rating ([2]; Postemergence, 31 g ai/ha): 15
Oilseed Rape plant response rating ([2]; Postemergence, 125 g ai/ha): 50
Oilseed Rape plant response rating ([2]; Postemergence, 250 g ai/ha): 70
Oilseed Rape plant response rating ([2]; postemergence, 62 g ai/ha): 20
Plant response rating (scale 0 to 100), Oilseed Rape [3, 22]: 10
Plant response rating, Oilseed Rape ([3]; 31 g ai/ha): 30
Plant response rating, Oilseed Rape ([3]; 62 g ai/ha): 65
Plant response rating, Oilseed Rape ([3]; 125 g ai/ha): 90
Plant response rating, Oilseed Rape ([3]; 250 g ai/ha): 100
Plant response rating (scale 0 to 100), Galium [4, 22]: 25
Plant response rating, Galium ([4]; 31 g ai/ha): 50
Plant response rating, Galium ([4]; 62 g ai/ha): 100
Plant response rating, Galium ([4]; 125 g ai/ha): 100
Plant response rating, Galium ([4]; 250 g ai/ha): 100
Plant response rating, Ryegrass, Italian ([5]; Postemergence, 16 g ai/ha): 0
Ryegrass, Italian plant response rating ([5]; Postemergence, 31 g ai/ha): 0
Ryegrass, Italian plant response rating ([5]; Postemergence, 125 g ai/ha): 5
Ryegrass, Italian plant response rating ([5]; Postemergence, 250 g ai/ha): 10
Ryegrass, Italian plant response rating ([5]; postemergence, 62 g ai/ha): 5
Plant response rating, Buckwheat, Wild ([6]; Postemergence, 16 g ai/ha): 50
Buckwheat, Wild plant response rating ([6]; Postemergence, 31 g ai/ha): 55
Buckwheat, Wild plant response rating ([6]; Postemergence, 125 g ai/ha): 60
Buckwheat, Wild plant response rating ([6]; Postemergence, 250 g ai/ha): 100
Buckwheat, Wild plant response rating ([6]; postemergence, 62 g ai/ha): 50
Plant response rating, Mustard, Wild ([7]; Postemergence, 16 g ai/ha): 10
Mustard, Wild plant response rating ([7]; Postemergence, 31 g ai/ha): 40
Mustard, Wild plant response rating ([7]; Postemergence, 125 g ai/ha): 100
Mustard, Wild plant response rating ([7]; Postemergence, 250 g ai/ha): 100
Mustard, Wild plant response rating ([7]; postemergence, 62 g ai/ha): 70
Plant response rating, Kochia ([8]; Postemergence, 16 g ai/ha): 25
Kochia plant response rating ([8]; Postemergence, 31 g ai/ha): 40
Kochia plant response rating ([8]; Postemergence, 125 g ai/ha): 60
Kochia plant response rating ([8]; Postemergence, 250 g ai/ha): 75
Kochia plant response rating ([8]; postemergence, 62 g ai/ha): 50
Plant response rating (scale 0 to 100), Foxtail, Green [9, 22]: 25
Plant response rating, Foxtail, Green ([9]; 31 g ai/ha): 50
Plant response rating, Foxtail, Green ([9]; 62 g ai/ha): 100
Plant response rating, Foxtail, Green ([9]; 125 g ai/ha): 100
Plant response rating, Foxtail, Green ([9]; 250 g ai/ha): 100
Plant response rating, Blackgrass ([10]; Postemergence, 16 g ai/ha): 5
Blackgrass plant response rating ([10]; Postemergence, 31 g ai/ha): 0
Blackgrass plant response rating ([10]; Postemergence, 125 g ai/ha): 10
Blackgrass plant response rating ([10]; Postemergence, 250 g ai/ha): 10
Blackgrass plant response rating ([10]; postemergence, 62 g ai/ha): 5
Plant response rating, Canarygrass ([11]; Postemergence, 16 g ai/ha): 5
Canarygrass plant response rating ([11]; Postemergence, 31 g ai/ha): 5
Canarygrass plant response rating ([11]; Postemergence, 125 g ai/ha): 10
Canarygrass plant response rating ([11]; Postemergence, 250 g ai/ha): 15
Canarygrass plant response rating ([11]; postemergence, 62 g ai/ha): 10
Plant response rating (scale 0 to 100), Wheat, Winter [12, 22]: 0
Plant response rating, Wheat, Winter ([12]; 31 g ai/ha): 0
Plant response rating, Wheat, Winter ([12]; 62 g ai/ha): 5
Plant response rating, Wheat, Winter ([12]; 125 g ai/ha): 40
Plant response rating, Wheat, Winter ([12]; 250 g ai/ha): 60
Plant response rating (scale 0 to 100), Wheat, Spring [13, 22]: 0
Plant response rating, Wheat, Spring ([13]; 31 g ai/ha): 0
Plant response rating, Wheat, Spring ([13]; 62 g ai/ha): 10
Plant response rating, Wheat, Spring ([13]; 125 g ai/ha): 60
Plant response rating, Wheat, Spring ([13]; 250 g ai/ha): 75
Plant response rating, Bluegrass ([14]; Postemergence, 16 g ai/ha): 5
Bluegrass plant response rating ([14]; Postemergence, 31 g ai/ha): 5
Bluegrass plant response rating ([14]; Postemergence, 125 g ai/ha): 20
Bluegrass plant response rating ([14]; Postemergence, 250 g ai/ha): 20
Bluegrass plant response rating ([14]; postemergence, 62 g ai/ha): 10
Plant response rating, Deadnettle ([15]; Postemergence, 16 g ai/ha): 15
Deadnettle plant response rating ([15]; Postemergence, 31 g ai/ha): 25
Deadnettle plant response rating ([15]; Postemergence, 125 g ai/ha): 50
Deadnettle plant response rating ([15]; Postemergence, 250 g ai/ha): 70
Deadnettle plant response rating ([15]; postemergence, 62 g ai/ha): 40
Plant response rating (scale 0 to 100), Bluegrass [16, 22]: 0
Plant response rating, Bluegrass ([16]; 31 g ai/ha): 0
Plant response rating, Bluegrass ([16]; 62 g ai/ha): 5
Plant response rating, Bluegrass ([16]; 125 g ai/ha): 55
Plant response rating, Bluegrass ([16]; 250 g ai/ha): 100
Plant response rating (scale 0 to 100), Field Violet [17, 22]: 60
Plant response rating, Field Violet ([17]; 31 g ai/ha): 95
Plant response rating, Field Violet ([17]; 62 g ai/ha): 100
Plant response rating, Field Violet ([17]; 125 g ai/ha): 100
Plant response rating, Field Violet ([17]; 250 g ai/ha): 100
Plant response rating, Chickweed ([18]; Postemergence, 16 g ai/ha): 35
Chickweed plant response rating ([18]; Postemergence, 31 g ai/ha): 50
Chickweed plant response rating ([18]; Postemergence, 125 g ai/ha): 60
Chickweed plant response rating ([18]; Postemergence, 250 g ai/ha): 70
Chickweed plant response rating ([18]; postemergence, 62 g ai/ha): 55
Plant response rating (scale 0 to 100), Windgrass [19, 22]: 5
Plant response rating, Windgrass ([19]; 31 g ai/ha): 15
Plant response rating, Windgrass ([19]; 62 g ai/ha): 65
Plant response rating, Windgrass ([19]; 125 g ai/ha): 80
Plant response rating, Windgrass ([19]; 250 g ai/ha): 100
Plant response rating, Radish, Wild ([20]; Postemergence, 16 g ai/ha): 5
Radish, Wild plant response rating ([20]; Postemergence, 31 g ai/ha): 10
Radish, Wild plant response rating ([20]; Postemergence, 125 g ai/ha): 70
Radish, Wild plant response rating ([20]; Postemergence, 250 g ai/ha): 65
Radish, Wild plant response rating ([20]; postemergence, 62 g ai/ha): 20
Plant response rating (scale 0 to 100), Bromegrass, Downy [21, 22]: 0
Plant response rating, Bromegrass, Downy ([21]; 31 g ai/ha): 0
Plant response rating, Bromegrass, Downy ([21]; 62 g ai/ha): 0
Plant response rating, Bromegrass, Downy ([21]; 125 g ai/ha): 5
Plant response rating, Bromegrass, Downy ([21]; 250 g ai/ha): 65
